# Experimental data: patent US9156788B2, “TRPV3 modulators” (AbbVie Inc., priority 2010, dated 2015)
# pIC50: −log10 of the molar value.
# Target: T1, human TRPV3 (Homo sapiens, UniProt Q8NET8)
# T1 construct: expressed in transfected cells
# T1 sequence (Q8NET8 1-790): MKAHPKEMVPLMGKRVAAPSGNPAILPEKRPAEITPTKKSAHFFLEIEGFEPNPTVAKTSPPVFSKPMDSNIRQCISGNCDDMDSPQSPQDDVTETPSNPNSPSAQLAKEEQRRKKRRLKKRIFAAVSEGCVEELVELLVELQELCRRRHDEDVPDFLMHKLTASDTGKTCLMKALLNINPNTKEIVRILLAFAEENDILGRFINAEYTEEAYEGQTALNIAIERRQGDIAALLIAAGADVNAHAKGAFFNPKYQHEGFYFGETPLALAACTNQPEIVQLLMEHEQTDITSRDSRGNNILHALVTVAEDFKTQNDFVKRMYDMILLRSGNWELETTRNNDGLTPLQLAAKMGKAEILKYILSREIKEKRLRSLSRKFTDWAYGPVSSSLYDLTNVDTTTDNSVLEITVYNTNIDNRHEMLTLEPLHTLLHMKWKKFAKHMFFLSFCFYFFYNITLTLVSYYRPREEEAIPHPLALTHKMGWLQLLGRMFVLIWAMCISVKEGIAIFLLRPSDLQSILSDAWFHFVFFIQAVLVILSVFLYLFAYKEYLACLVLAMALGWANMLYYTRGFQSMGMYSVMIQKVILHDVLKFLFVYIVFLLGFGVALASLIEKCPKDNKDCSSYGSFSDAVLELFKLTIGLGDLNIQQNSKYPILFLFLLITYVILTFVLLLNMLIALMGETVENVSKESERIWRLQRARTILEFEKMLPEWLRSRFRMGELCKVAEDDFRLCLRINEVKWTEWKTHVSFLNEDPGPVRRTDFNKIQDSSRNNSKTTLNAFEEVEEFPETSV
# Assay: Calcium flux assay (FLIPR TETRA), inhibition of 2-APB response
# Format: cell-based
# Settings: recombinant HEK293 cells stably expressing human TRPV3; 2-APB at its EC50
# Procedure: (i) In Vitro Methods-Calcium Flux Assays:
# Experiments were conducted using the FLIPR^TETRA®. On the day prior to the experiment, recombinant HEK293 cells that stably express human and mouse TRPV3 were removed from tissue culture flasks and plated in growth medium at 20,000 cells/well into black-walled clear-bottom 384-well Biocoat™ poly-D-lysine assay plates (BD Biosciences, Bedford, Mass.) using a Multidrop® dispenser (ThermoScientific, Waltham, Mass.). On the day of the experiment, growth medium was removed, and the no-wash FLIPR® Calcium-4 dye (λEX=470-495 nm, λEM=515-575 nm; Molecular Devices, Sunnyvale, Calif.) was added to each well using the Multidrop® dispenser. Cells were incubated for 90-120 minutes in the dark. Compounds were dissolved in DMSO to prepare a 10 mM stock solution. The intensity of the fluorescence was captured and digitally transferred to an interfaced PC. The peak increase in fluorescence over baseline (relative fluorescence units) was calculated and expressed as the percentage of the maximal 2-APB (2-aminoethoxyldiphenyl borate) response (in the absence of compound).
row,pIC50,Compound
1,4.70 to 5.29,"OC(c1ccccn1)C1(c2cc(F)cc(C(F)(F)F)c2)CCC1 (centres unmarked) [Example 14, {1-[3-fluoro-5-(trifluoromethyl)phenyl]cyclobutyl}(pyridin-2-yl)methanol]"
2,4.70 to 5.29,"CS(=O)(=O)c1ccc(C2(C(O)c3ccccn3)CCC2)cc1 (centres unmarked) [Example 16, {1-[4-(methylsulfonyl)phenyl]cyclobutyl}(pyridin-2-yl)methanol]"
3,5.30 to 5.96,"OC(c1ccccn1)C1(c2ccc(C(F)(F)F)c(F)c2)CCC1 (centres unmarked) [Example 17, {1-[3-fluoro-4-(trifluoromethyl)phenyl]cyclobutyl}(pyridin-2-yl)methanol]"
4,4.70 to 5.29,"OC(c1ccccn1)C1(c2ccccn2)CCC1 (centres unmarked) [Example 19, pyridin-2-yl(1-pyridin-2-ylcyclobutyl)methanol]"
5,4.70 to 5.29,"OC(c1ccccn1)C1(c2cccnc2)CCC1 (centres unmarked) [Example 20, pyridin-2-yl(1-pyridin-3-ylcyclobutyl)methanol]"
6,4.70 to 5.29,"OC(c1ccccn1)C1(c2ccncc2)CCC1 (centres unmarked) [Example 21, pyridin-2-yl(1-pyridin-4-ylcyclobutyl)methanol]"
7,4.70 to 5.29,"OC(c1ccccn1)C1(c2ccc(-c3ccccc3)cc2)CCC1 (centres unmarked) [Example 22, [1-(1,1′-biphenyl-4-yl)cyclobutyl](pyridin-2-yl)methanol]"
8,6.00 to 6.30,"O[C@H](c1ccccn1)C1(c2ccc(C(F)(F)F)cc2F)CCC1 [Example 27, (S)-{1-[2-fluoro-4-(trifluoromethyl)phenyl]cyclobutyl}(pyridin-2-yl)methanol]"
9,4.70 to 5.29,"OC(c1ncccn1)C1(c2ccccc2F)CCC1 (centres unmarked) [Example 32, [1-(2-fluorophenyl)cyclobutyl](pyrimidin-2-yl)methanol]"
10,4.70 to 5.29,"OC(c1ncccn1)C1(c2ccc(F)cc2)CCC1 (centres unmarked) [Example 34, [1-(4-fluorophenyl)cyclobutyl](pyrimidin-2-yl)methanol]"
11,4.70 to 5.29,"O[C@H](c1ncccn1)C1(c2ccc(C(F)(F)F)cc2)CCC1 [Example 41, (S)-pyrimidin-2-yl{1-[4-(trifluoromethyl)phenyl]cyclobutyl}methanol]"
12,5.30 to 5.96,"O[C@@H](c1ncccn1)C1(c2ccc(C(F)(F)F)cc2)CCC1 [Example 42, (R)-pyrimidin-2-yl{1-[4-(trifluoromethyl)phenyl]cyclobutyl}methanol]"
13,4.70 to 5.29,"CC(c1cccc(C(F)(F)F)c1)C1(C(O)c2ccccn2)CCC1 (centres unmarked) [Example 54, pyridin-2-yl(1-{1-[3-(trifluoromethyl)phenyl]ethyl}cyclobutyl)methanol]"
14,5.30 to 5.96,[1-(4-methylbenzyl)cyclobutyl](pyridin-2-yl)methanol [Example 52]
